Where two headings read alike, the source gives them in different places.
How the values were obtained:
human CB1 receptor [1] = target: T1, human CB1 receptor (Homo sapiens, UniProt P21554); assay: Human CB1 receptor binding, [3H] CP-55,940 displacement on HEK cell membranes; design: expressed in transfected cells; host or cells: HEK cells, doxycycline-induced; membrane preparation
In short: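 Membranes from doxycycline-induced HEK cells expressing human CB1 incubated 60 min at room temperature with [3H] CP-55,940 (final […]) in 50 mM Tris pH 7.4, 100 mM NaCl, 3 mM MgCl2, 0.2 mM EGTA, 0.04% BSA. Nonspecific binding defined with 50 μM WIN-55,212-2; filtration and scintillation counting gave EC50 and Ki.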

human CB1 receptor [2] = target: T1, human CB1 receptor; assay: [35S] GTPγS binding on membranes of CHO cells expressing the human CB1 receptor (agonism); format: biochemical; design: expressed in transfected cells; membrane preparation
In short: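 Membranes from human CB1-expressing CHO cells (5 μg/well) incubated with test compound and [35S]GTPγS in 50 mM Tris pH 7.4, 100 mM NaCl, 3 mM MgCl2, 0.2 mM EGTA, 0.04% BSA for 45 min at 37 °C. Bound label collected by filtration, scintillation counted; EC50 from curve fits.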

[3] = human CB1, CHO cell membranes, read-out: GTPγS EC50
[4] = GTPγS EC50, human CB1, CHO cell membranes

T1 sequence (P21554 whole entry): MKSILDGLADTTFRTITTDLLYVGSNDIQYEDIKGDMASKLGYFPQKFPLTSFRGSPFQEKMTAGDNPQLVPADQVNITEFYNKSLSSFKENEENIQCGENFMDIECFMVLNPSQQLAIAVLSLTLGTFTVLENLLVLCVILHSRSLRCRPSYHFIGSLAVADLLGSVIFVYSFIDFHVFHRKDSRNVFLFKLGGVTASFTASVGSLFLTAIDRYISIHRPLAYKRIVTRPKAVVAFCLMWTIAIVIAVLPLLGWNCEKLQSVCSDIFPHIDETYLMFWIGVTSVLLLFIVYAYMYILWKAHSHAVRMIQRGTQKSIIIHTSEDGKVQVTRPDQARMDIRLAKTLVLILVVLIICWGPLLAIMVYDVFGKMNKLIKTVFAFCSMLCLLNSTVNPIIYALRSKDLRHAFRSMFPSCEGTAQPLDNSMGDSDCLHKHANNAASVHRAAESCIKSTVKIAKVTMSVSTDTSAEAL

Compound | Ki (human CB1 receptor [1]; read-out: CB1 Ki) [nM] | EC50 (human CB1 receptor [2]; [3]) [nM] | Ki (human CB1 receptor [1]; CB1 Ki) [nM] | EC50 (human CB1 receptor [2]; [4]) [nM]
CC(C)(C)[C@H](NC(=O)c1nn(Cc2ccc(F)cc2)c2ccccc12)C(=O)NCc1nnc(C(=O)NCCO)o1 [Example 462] | 2.29 | 13 |  | 
CC(C)(C)[C@H](NC(=O)c1nn(Cc2ccc(F)cc2)c2ccccc12)C(=O)NCCC(N)=O [Example 470] |  |  | 11.2 | 33.7
CC(C)(C)[C@H](NC(=O)c1nn(Cc2ccc(F)cc2F)c2ccccc12)C(=O)NCCC(N)=O [Example 472] |  |  | 19.6 | 52.7
CC(C)(C)[C@H](NC(=O)c1nn(Cc2ccc(F)c(F)c2)c2ccccc12)C(=O)NCCC(N)=O [Example 473] |  |  | 17 | 41.8
CC(C)(C)[C@H](NC(=O)c1nn(Cc2ccc(F)cc2)c2c(F)cccc12)C(=O)NCCC(N)=O [Example 476] |  |  | 6.48 | 31.4
CC(C)(C)[C@H](NC(=O)c1nn(Cc2ccc(F)cc2)c2ccccc12)C(=O)NCCOc1ccccn1 [Example 478] | 21.3 | 23.7 |  | 
CC(C)(C)[C@H](NC(=O)c1nn(Cc2ccc(F)cc2)c2ccccc12)C(=O)NCCOc1ccnc(N)n1 [Example 479] | 13.4 | 131 |  | 
CC(C)(C)[C@H](NC(=O)c1nn(Cc2ccc(F)cc2)c2ccccc12)C(=O)NCCNc1ccccn1 [Example 480] | 15.3 | 42.6 |  | 
CC(C)(C)[C@H](NC(=O)c1nn(Cc2ccc(F)cc2)c2ccccc12)C(=O)NCCc1cnccn1 [Example 482] | 12.1 | 22.2 |  | 
CC(C)(C)[C@H](NC(=O)c1nn(Cc2ccc(F)cc2)c2ccccc12)C(=O)NC[C@H]1C[C@@H]1CO [Example 488] |  |  | 5.61 | 21.4
CC(C)(C)[C@H](NC(=O)c1nn(Cc2ccc(C#N)cc2)c2c(F)cccc12)C(=O)NC[C@H]1C[C@H]1CO [Example 490] |  |  | 12.4 | 63.1
CC(C)(C)[C@H](NC(=O)c1nn(Cc2ccc(F)cc2)c2ccccc12)C(=O)NC[C@H]1C[C@H]1CO [Example 492] |  |  | 1.32 | 9.71
CC(C)NC(=O)CNC(=O)[C@@H](NC(=O)c1nn(Cc2ccc(F)cc2)c2ccccc12)C(C)(C)C [Example 493] |  |  | 0.95 | 9.94
CC(C)(C)[C@H](NC(=O)c1nn(Cc2ccc(F)cc2)c2ccccc12)C(=O)NCC(=O)NC1CC1 [Example 494] |  |  | 0.34 | 1.17
CC(C)(C)[C@H](NC(=O)c1nn(Cc2ccc(F)cc2)c2c(F)cc(Cl)cc12)C(=O)NC[C@H](O)CO [Example 496] |  |  | 16.5 | 30.2
CC(C)(C)[C@H](NC(=O)c1nn(Cc2ccc(F)cc2)c2c(F)cc(Cl)cc12)C(=O)NCCS(N)(=O)=O [Example 497] |  |  | 16.7 | 59.5
CC(C)(C)[C@H](NC(=O)c1nn(Cc2ccc(F)cc2)c2c(F)cc(Cl)cc12)C(=O)NCC(N)=O [Example 498] |  |  | 16.4 | 38.3
CC(C)(C)[C@H](NC(=O)c1nn(Cc2ccc(F)cc2)c2ccccc12)C(=O)NCCN1CCCC1=O [Example 499] | 18.3 | 204 |  | 

Compound | Ki (human CB1 receptor [1]; read-out: CB1 Ki) [nM] | EC50 (human CB1 receptor [2]; [3]) [nM] | Ki (human CB1 receptor [1]; CB1 Ki) [nM] | EC50 (human CB1 receptor [2]; [4]) [nM]
CC(C)(C)[C@H](NC(=O)c1nn(Cc2ccc(F)cc2)c2ccccc12)C(=O)NCCN1Cc2ncccc2C1=O [Example 500] | 10.1 | 47.4 |  | 
CC(C)(C)[C@H](NC(=O)c1nn(Cc2ccc(F)cc2)c2ccccc12)C(=O)NCCc1nc2ccccc2c(=O)[nH]1 [Example 501] | 24.2 | 16.8 |  | 
CC(C)(C)[C@H](NC(=O)c1nn(Cc2ccc(F)cc2)c2ccccc12)C(=O)NCCn1ccccc1=O [Example 502] | 17.3 | 36.9 |  | 
CC(C)(C)[C@H](NC(=O)c1nn(Cc2ccc(F)cc2)c2ccccc12)C(=O)NC[C@H](O)CN1CCOCC1 [Example 504] | 21.3 | 132 |  | 
CC(C)(C)[C@H](NC(=O)c1nn(Cc2ccc(F)cc2)c2ccccc12)C(=O)NCCc1n[nH]c(=O)[nH]1 [Example 506] | 1.3 | 8.97 |  | 
Cc1cc2c(C(=O)N[C@H](C(=O)NCc3nnc(C(N)=O)o3)C(C)(C)C)nn(Cc3ccc(F)cc3)c2cc1F [Example 508] | 2.71 | 16.2 |  | 
Cc1cc2c(C(=O)N[C@H](C(N)=O)C(C)(C)C)nn(Cc3ccc(F)cc3)c2cc1F [Example 509] |  |  | 0.45 | 7.55
Cc1cc2c(C(=O)N[C@H](C(=O)NC[C@H](O)CO)C(C)(C)C)nn(Cc3ccc(F)cc3)c2cc1F [Example 510] |  |  | 6.87 | 24.8
Cc1cc2c(C(=O)N[C@H](C(=O)NCCO)C(C)(C)C)nn(Cc3ccc(F)cc3)c2cc1F [Example 511] |  |  | 0.68 | 6.7
Cc1cc2c(C(=O)N[C@H](C(=O)NCCS(N)(=O)=O)C(C)(C)C)nn(Cc3ccc(F)cc3)c2cc1F [Example 512] |  |  | 8.4 | 31.4
CC(C)(C)[C@H](NC(=O)c1nn(Cc2ccc(F)cc2)c2ccccc12)C(=O)Nc1cnoc1 [Example 513] |  |  | 2.3 | 13.7
Cc1cc(NC(=O)[C@@H](NC(=O)c2nn(Cc3ccc(F)cc3)c3ccccc23)C(C)(C)C)sn1 [Example 514] |  |  | 3.03 | 33.3
CC(C)(C)[C@H](NC(=O)c1nn(Cc2ccc(F)cc2)c2ccccc12)C(=O)NC[C@@H](O)[C@H](O)CO [Example 516] |  |  | 4.28 | 44.6
CC(C)(C)[C@H](NC(=O)c1nn(Cc2ccc(F)cc2)c2ccccc12)C(=O)NC[C@H](O)[C@@H](O)CO [Example 517] |  |  | 15.9 | 111
CC(C)(C)[C@H](NC(=O)c1nn(Cc2ccc(F)cc2)c2ccccc12)C(=O)NCC(=O)Nc1cnoc1 [Example 518] | 1.8 | 13.6 |  | 
CC(C)(C)[C@H](NC(=O)c1nn(Cc2ccc(F)cc2)c2ccccc12)C(=O)NCC(=O)Nc1nncs1 [Example 519] | 0.95 | 5.77 |  | 
CC(C)(C)[C@H](NC(=O)c1nn(Cc2ccc(F)cc2)c2ccccc12)C(=O)NCC(=O)Nc1ccccn1 [Example 520] | 1.88 | 10.1 |  | 
CC(C)(C)[C@H](NC(=O)c1nn(Cc2ccc(F)cc2)c2ccccc12)C(=O)NCC(=O)NC[C@@H](O)CO [Example 523] | 5.22 | 2.8 |  | 
